From publication PMC9792171, “Design and synthesis of new thiazolidinone/uracil derivatives as antiproliferative agents targeting EGFR and/or BRAF^V600E” (Frontiers in Chemistry, 2022)

Assays:
[1] = tested on: four human cancer cell lines (A-549, MCF-7, Panc-1, HT-29); test: Antiproliferative MTT assay, average of four cancer cell lines (GI50); format: cell-based; settings: for IC50: Homo sapiens, average of A-549, MCF-7, Panc-1, HT-29
Procedure: Using the MTT assay ([Abdelrahman et al., 2017]; [El-Sherief et al., 2018]) and doxorubicin as the reference drug, 3a-f and 5a-l were tested for antiproliferative activity against four human cancer cell lines: Panc-1 (pancreas cancer cell line), MCF-7 (breast cancer cell line), HT-29 (colon cancer cell line), and A-549 (epithelial cancer cell line). […]
(§1) To explore the antiproliferative potential of compounds MTT assay was performed according to previously reported procedure (El-Sherief, H.A.M., et al., 2018; Abdelrahman, M. H., et al., 2017) using different cell lines to explore the antiproliferative potential of compounds propidium iodide fluorescence assay was performed using different cell lines. To calculate the total nuclear DNA, a fluorescent dye (propidium iodide, PI) is used which can attach to the DNA, thus offering a quick and precise technique. PI cannot pass through the cell membrane and its signal intensity can be considered as directly proportional to quantity of cellular DNA. Cells whose cell membranes are damaged or have changed permeability are counted as dead ones. The assay was performed by seeding the cells of different cell lines at a density of 3000-7500 cells/well (in 200µl medium) in culture plates followed by incubation for 24h at 37 °C in humidified 5% CO2/95% air atmospheric conditions. The medium was removed; the compounds were added to the plates at 10 µM concentrations (in 0.1% DMSO) in triplicates, followed by incubation for 48 h. DMSO (0.1%) was used as control. After incubation, medium was removed followed by the addition of PI (25 µl, 50µg/mL in water/medium) to each well of the plates. At -80 °C, the plates were allowed to freeze for 24 h, followed by thawing at 25 °C. A fluorometer (Polar-Star BMG Tech) was used to record the readings at excitation and emission wavelengths of 530 and 620 nm for each well. The percentage cytotoxicity of compounds was calculated using the following formula: […]

[2] = tested on: HT-29 (colon cancer cell line); test: Antiproliferative MTT assay, HT-29; format: cell-based; settings: Homo sapiens; HT-29, MTT; read-out: Antiproliferative activity IC50 ± SEM (nM) HT-29
Procedure: (§2) Using the MTT assay ([Abdelrahman et al., 2017]; [El-Sherief et al., 2018]) and doxorubicin as the reference drug, 3a-f and 5a-l were tested for antiproliferative activity against four human cancer cell lines: Panc-1 (pancreas cancer cell line), MCF-7 (breast cancer cell line), HT-29 (colon cancer cell line), and A-549 (epithelial cancer cell line).
as §1

[3] = tested on: A-549 (epithelial cancer cell line); test: Antiproliferative MTT assay, A-549; format: cell-based; settings: Homo sapiens, A549; A-549, MTT; read-out: Antiproliferative activity IC50 ± SEM (nM) A-549
Procedure: as §2, §1

[4] = tested on: MCF-7 (breast cancer cell line); test: Antiproliferative MTT assay, MCF-7; format: cell-based; settings: Homo sapiens, MCF7; MCF-7, MTT; read-out: Antiproliferative activity IC50 ± SEM (nM) MCF-7
Procedure: as §2, §1

[5] = Cell viability assay (MTT), MCF-10A; format: cell-based; settings: human, MCF-10A mammary gland epithelial cells, MCF-10A cells, incubated 4 days
Procedure: To test the viability of new compounds, the human mammary gland epithelial (MCF-10A) cell line was used ([Youssif et al., 2019]; [Mahmoud et al., 2022]). MCF-10A cells were incubated with compounds 3a-f and 5a-l for 4 days before being tested for viability using the MTT assay.
MTT assay was carried out to study the effect of compounds on mammary epithelial cells (MCF-10A) (Youssif, B. G. M. et al., 2019; Mahmoud, M. A., et al., 2022). The medium in which cells were propagated contained Dulbecco's modified Eagle's medium (DMEM)/ Ham's F-12 medium (1:1) supplemented with epidermal growth factor (20 ng/mL), hydrocortisone (500 ng/mL), insulin (10 μg/mL), 2 mM glutamine and 10% foetal calf serum. After every 2-3 days, the cells were passaged using trypsin ethylenediamine tetra acetic acid (EDTA). The cells were seeded at a density of 10^4 cells mL^-1 in flat-bottomed culture plates containing 96 wells each. After 24 h, medium was removed from the plates and the compounds in (in 0.1% DMSO) were added (in 200 μL medium to yield a final concentration of 0.1% v/v) to the wells of plates. A single compound was designated with four wells followed by incubation of plates for 96h at 37°C. After incubation, medium was removed completely from the plates followed by addition of MTT (0.4 mg/mL in medium) to each well and subsequent incubation of plates for 3h. MTT (along with the medium) was removed and DMSO (150μL) was added to each well of the culture plates, followed by vortexing and subsequent measurement of absorbance (at 540 nm) using microplate reader. The data are shown as percentage inhibition of proliferation in comparison with controls containing 0.1% DMSO.

[6] = tested on: Panc-1 (pancreas cancer cell line); test: Antiproliferative MTT assay, Panc-1; format: cell-based; settings: Homo sapiens; Panc-1, MTT; read-out: Antiproliferative activity IC50 ± SEM (nM) Panc-1
Procedure: as §2, §1

[7] = tested on: lung cancer (A549) cell line; set-up: method as in Aziz et al., 2021; settings: ref Aziz et al., 2021; read-out: IC50 against lung cancer (A549) cell line; cited from earlier work
EGFR = biological target: T1, EGFR (Homo sapiens, UniProt P00533); set-up: method as in Aziz et al., 2021; settings: ref Aziz et al., 2021; cited from earlier work
T1 construct: EGFR cytoplasmic domain (EGFR-CD, amino acids 645–1186); His6 (N); made in house; host or cells: Sf-9 insect cells (baculovirus; pBlueBacHis2B and pFASTBacHTc)
T1 sequence (P00533 669-1210): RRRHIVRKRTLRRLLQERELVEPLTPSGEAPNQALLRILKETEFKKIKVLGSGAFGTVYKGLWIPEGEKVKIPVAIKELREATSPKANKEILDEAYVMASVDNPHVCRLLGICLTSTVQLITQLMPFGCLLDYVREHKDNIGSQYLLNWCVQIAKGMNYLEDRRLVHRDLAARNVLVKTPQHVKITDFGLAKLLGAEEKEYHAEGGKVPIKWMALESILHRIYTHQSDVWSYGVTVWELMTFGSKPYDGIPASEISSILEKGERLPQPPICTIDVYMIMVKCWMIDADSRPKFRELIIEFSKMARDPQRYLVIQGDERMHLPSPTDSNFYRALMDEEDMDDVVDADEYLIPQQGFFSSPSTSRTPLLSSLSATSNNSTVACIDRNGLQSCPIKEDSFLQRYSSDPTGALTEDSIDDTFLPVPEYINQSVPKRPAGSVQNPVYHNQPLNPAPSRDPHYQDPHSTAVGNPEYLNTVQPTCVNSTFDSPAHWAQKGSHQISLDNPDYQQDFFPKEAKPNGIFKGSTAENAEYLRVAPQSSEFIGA

[8] = tested on: human lung carcinoma cell lines; set-up: method as in Xiong et al., 2008; settings: panel of human lung carcinoma cell lines; ref Xiong et al., 2008; read-out: IC50, inhibition of cell proliferation; cited from earlier work

| Compound | IC50 [1] | IC50 [2] | IC50 [3] | IC50 [4] | viability at 4 days, 50 µM [5] | melting point | IC50 [6] | fold less potent than compound 5j (GI50) ([1]; ratio of GI50 values) | IC50 [7] | IC50 (EGFR) | IC50 [8] |
| --- | --- | --- | --- | --- | --- | --- | --- | --- | --- | --- | --- |
| COC(=O)/C=C1\S/C(=N\c2c[nH]c(=O)[nH]c2=O)N(c2ccccc2)C1=O [Compound 5g, (Z)-Methyl-2-((Z)-2-((2,4-dioxo-1,2,3,4-tetrahydropyrimidin-5-yl)imino)-4-oxo-3-phenyl-thiazolidin-5-ylidene)acetate] | 2500 nM | 2200 ± 200 nM | 2700 ± 200 nM | 2200 ± 200 nM | 87% | 302 to 304 °C | 2900 ± 200 nM | – | – | – | – |
| CCOC(=O)/C=C1\S/C(=N\c2c[nH]c(=O)[nH]c2=O)N(Cc2ccccc2)C1=O [Compound 5d, (Z)-Ethyl-2-((Z)-3-benzyl-2-((2,4-dioxo-1,2,3,4-tetrahydropyrimidin-5-yl)imino)-4-oxo-thiazolidin-5-ylidene)acetate] | 5150 nM | 5500 ± 500 nM | 4900 ± 500 nM | 4700 ± 400 nM | 86% | – | 5500 ± 500 nM | approximately 5 fold | – | – | – |
| COc1cccc2c1C(=O)c1c(O)c3c(c(O)c1C2=O)C[C@@](O)(C(=O)CO)C[C@@H]3O[C@H]1C[C@H](N)[C@H](O)[C@H](C)O1 [Doxorubicin, reference compound] | 1100 nM | 1000 ± 100 nM | 1200 ± 100 nM | 900 ± 100 nM | – | – | 1400 ± 100 nM | – | – | – | – |
| Cc1ccc(NC(=S)Nc2c[nH]c(=O)[nH]c2=O)cc1 [Compound 3b, 1-(2,4-Dioxo-1,2,3,4-tetrahydropyrimidin-5-yl)-3-(p-tolyl)thiourea] | 3800 nM | 3900 ± 300 nM | 3700 ± 300 nM | 3600 ± 300 nM | 87% | 338 to 340 °C | 4100 ± 300 nM | – | – | – | – |
| C=CCNC(=S)Nc1c[nH]c(=O)[nH]c1=O [Compound 3f, 1-Allyl-3-(2,4-dioxo-1,2,3,4-tetrahydropyrimidin-5-yl)thiourea] | 3900 nM | 4100 ± 300 nM | 3800 ± 300 nM | 3700 ± 300 nM | 89% | 348 to 350 °C (dec.) | 3900 ± 300 nM | – | – | – | – |
| O=c1[nH]cc(NC(=S)Nc2ccccc2)c(=O)[nH]1 [Compound 3a, 1-(2,4-Dioxo-1,2,3,4-tetrahydropyrimidin-5-yl)-3-phenylthiourea] | 8800 nM | 9100 ± 800 nM | 8900 ± 800 nM | 8500 ± 800 nM | 86% | 340 to 342 °C | 8800 ± 800 nM | – | – | – | – |
| CCOC(=O)/C=C1\S/C(=N\c2c[nH]c(=O)[nH]c2=O)N(C)C1=O [Compound 5e, (Z)-Ethyl-2-((Z)-2-((2,4-dioxo-1,2,3,4-tetrahydropyrimidin-5-yl)imino)-3-methyl-4-oxo-thiazolidin-5-ylidene)acetate] | 7100 nM | 7200 ± 700 nM | 7200 ± 600 nM | 6700 ± 700 nM | 86% | 302 to 304 °C | 7300 ± 700 nM | – | – | – | – |
| O=c1[nH]cc(NC(=S)NCc2ccccc2)c(=O)[nH]1 [Compound 3d, 1-Benzyl-3-(2,4-dioxo-1,2,3,4-tetrahydropyrimidin-5-yl)thiourea] | 4150 nM | 4300 ± 400 nM | 4100 ± 400 nM | 3900 ± 400 nM | 91% | 350 to 352 °C (dec.) | 4300 ± 400 nM | – | – | – | – |
| CCOC(=O)/C=C1\S/C(=N\c2c[nH]c(=O)[nH]c2=O)N(c2ccccc2)C1=O [Compound 5a, (Z)-Ethyl-2-((Z)-2-((2,4-dioxo-1,2,3,4-tetrahydropyrimidin-5-yl)imino)-4-oxo-3-phenyl-thiazolidin-5-ylidene)acetate] | 3450 nM | 3900 ± 300 nM | 3500 ± 300 nM | 3100 ± 300 nM | 91% | 320 to 322 °C | 3300 ± 300 nM | – | – | – | – |
| O=C1N=C(Nn2c(-c3ccccc3)nc3ccccc3c2=O)S/C1=C/c1ccccc1 [Compound III] | – | – | – | – | – | – | – | – | 0.72 µM | 0.065 µM | – |
| COC(=O)c1ccccc1NC(=S)N(CCN1CCCCC1)Cc1cc2cc(C)ccc2[nH]c1=O [DC27] | – | – | – | – | – | – | – | – | – | – | 2.5 to 12.9 µM |
| CNC(=S)Nc1c[nH]c(=O)[nH]c1=O [Compound 3e, 1-(2,4-Dioxo-1,2,3,4-tetrahydropyrimidin-5-yl)-3-methylthiourea] | 10000 nM | 10800 ± 900 nM | 9700 ± 800 nM | 9600 ± 800 nM | 89% | 332 to 334 °C | 9800 ± 800 nM | – | – | – | – |
| COC(=O)/C=C1\S/C(=N\c2c[nH]c(=O)[nH]c2=O)N(C)C1=O [Compound 5k, (Z)-Methyl-2-((Z)-2-((2,4-dioxo-1,2,3,4-tetrahydropyrimidin-5-yl)imino)-3-methyl-4-oxothiazolidin-5-ylidene)acetate] | 5700 nM | 6200 ± 600 nM | 5700 ± 600 nM | 5100 ± 500 nM | 89% | 300 to 302 °C | 5900 ± 500 nM | – | – | – | – |
| C=CCN1C(=O)/C(=C/C(=O)OC)S/C1=N\c1c[nH]c(=O)[nH]c1=O [Compound 5l, (Z)-Methyl-2-((Z)-3-allyl-2-((2,4-dioxo-1,2,3,4-tetrahydropyrimidin-5-yl)imino)-4-oxothiazolidin-5-ylidene)acetate] | 6400 nM | 6600 ± 600 nM | 6000 ± 600 nM | 6500 ± 600 nM | 86% | 314 to 316 °C | 6400 ± 600 nM | – | – | – | – |
| C=CCN1C(=O)/C(=C/C(=O)OCC)S/C1=N\c1c[nH]c(=O)[nH]c1=O [Compound 5f, (Z)-Ethyl-2-((Z)-3-allyl-2-((2,4-dioxo-1,2,3,4-tetrahydropyrimidin-5-yl)imino)-4-oxo-thiazolidin-5-ylidene)acetate] | 8500 nM | 8900 ± 700 nM | 8200 ± 700 nM | 7900 ± 700 nM | 89% | 310 to 312 °C | 8800 ± 700 nM | – | – | – | – |
